Converted amounts (≈) assume the structure as drawn. Read-outs that look alike come from different tables or passages of the source.
Assays:
Type in all cases: cell-based
[1] = system: M. suipneumoniae ATCC 25095; assay: Anti-mycoplasmal MIC in vitro, Friis broth agarose (Table 1); conditions: Mesomycoplasma hyopneumoniae, ATCC25095, 144 h
M. hyorhinis ATCC 23234 = assay: as above; conditions: Mesomycoplasma hyorhinis, ATCC23234, 144 h
M. suipneumoniae Str. 11 = assay: as above; conditions: Mesomycoplasma hyopneumoniae
M. suipneumoniae OCD 1 = assay: as above; conditions: Mesomycoplasma hyopneumoniae, OCD1, 144 h
M. suipneumoniae MS 16 = assay: as above; conditions: Mesomycoplasma hyopneumoniae, MS16, 144 h
M. suipneumoniae LABER = assay: as above; conditions: Mesomycoplasma hyopneumoniae, 144 h
M. suipneumoniae HR(2) = assay: as above; conditions: Mesomycoplasma hyopneumoniae, 144 h
M. suipneumoniae JF 435 = assay: as above; conditions: Mesomycoplasma hyopneumoniae, JF435, 144 h
M. hyorhinis ATCC 25021 = assay: as above; conditions: Mesomycoplasma hyorhinis, ATCC25021, 144 h
M. suipneumoniae NB12 = assay: as above; conditions: Mesomycoplasma hyopneumoniae
[2] = system: Ps. aeruginosa NCTC 10662; assay: Human bacteria MIC, nutrient agar with chocolated horse blood (Table 3); conditions: Pseudomonas aeruginosa
Method: (§1) The values were determined by serial dilutions in nutrient agar with 5% chocolated horse blood after incubations for 18 hours at 37° C.

Strep. faecalis 1 = assay: as above
Method: as §1

Staph. aureus Oxford = assay: as above; conditions: Staphylococcus aureus; Staph. aureus Oxford; nutrient agar 5% chocolated horse blood, 18 hours 37° C.; read-out: MIC
Method: as §1

P. mirabilis 889 = assay: as above
Method: as §1

Sarcina lutea 8340 = assay: as above
Method: as §1

E. Coli NCTC 10418 = assay: as above; conditions: Escherichia coli
Method: as §1

K. aerogenes A = assay: as above; conditions: Klebsiella aerogenes
Method: as §1

Staph. aureus Russell = assay: as above; conditions: Staphylococcus aureus; Staph. aureus Russell; nutrient agar 5% chocolated horse blood, 18 hours 37° C.; read-out: MIC
Method: as §1

Staph. aureus W2827 = assay: as above; conditions: Staphylococcus aureus; Staph. aureus W2827; nutrient agar 5% chocolated horse blood, 18 hours 37° C.; read-out: MIC
Method: as §1

Bacillus subtilis 6633 = assay: as above
Method: as §1

[3] = system: Corynebacterium xerosis 9755; assay: as above
Method: as §1

[4] = system: Strep. pyogenes R80/421-A; assay: as above; conditions: Streptococcus pyogenes
Method: as §1

[5] = system: Pasteurella multocida 1633; assay: as above; conditions: Pasteurella multocida 1633; nutrient agar 5% chocolated horse blood, 18 hours 37° C.; read-out: MIC
Method: as §1

[6] = system: Haemophilus influenzae Q1; assay: as above
Method: as §1

M. gallisepticum S6 = assay: Anti-mycoplasmal MIC in vitro, Friis broth agarose (Table 1); conditions: Mycoplasmoides gallisepticum
M. dispar RCTC 10125 = assay: as above; conditions: 144 h
[7] = system: M. suipneumoniae J2206/183b; assay: as above; conditions: Mesomycoplasma hyopneumoniae, 144 h
[8] = system: M. hyosynoviae ATOC 25591; assay: as above; conditions: 144 h
[9] = M. suipneumoniae OCD 1, in vitro, 6 days 37° C., read-out: MIC
[10] = M. suipneumoniae HR(2), in vitro, 6 days 37° C., read-out: MIC
[11] = M. suipneumoniae JF 435, in vitro, 6 days 37° C., read-out: MIC
[12] = NCTC10662, Ps. aeruginosa NCTC 10662, nutrient agar 5% chocolated horse blood, 18 hours 37° C., read-out: MIC
[13] = Enterococcus faecalis, Strep. faecalis 1, nutrient agar 5% chocolated horse blood, 18 hours 37° C., read-out: MIC
[14] = Proteus mirabilis, P. mirabilis 889, nutrient agar 5% chocolated horse blood, 18 hours 37° C., read-out: MIC
[15] = Micrococcus luteus, Sarcina lutea 8340, nutrient agar 5% chocolated horse blood, 18 hours 37° C., read-out: MIC
[16] = NCTC10418, E. coli NCTC 10418, nutrient agar 5% chocolated horse blood, 18 hours 37° C., read-out: MIC
[17] = K. aerogenes A, nutrient agar 5% chocolated horse blood, 18 hours 37° C., read-out: MIC
[18] = Bacillus subtilis 6633, nutrient agar 5% chocolated horse blood, 18 hours 37° C., read-out: MIC
[19] = Corynebacterium xerosis 9755, nutrient agar 5% chocolated horse blood, 18 hours 37° C., read-out: MIC
[20] = Haemophilus influenzae Q1, nutrient agar 5% chocolated horse blood, 18 hours 37° C., read-out: MIC
[21] = M. suipneumoniae J2206/183b, in vitro, 6 days 37° C., read-out: MIC

SMILES	MIC [1]	MIC (M. hyorhinis ATCC 23234)	MIC (M. suipneumoniae Str. 11; STR.11, 144 h)	MIC (M. suipneumoniae MS 16)	MIC (M. suipneumoniae LABER)	MIC (M. hyorhinis ATCC 25021)	MIC (M. suipneumoniae NB12; NB12, 144 h)	MIC (Staph. aureus Oxford)	MIC (Staph. aureus Russell)	MIC (Staph. aureus W2827)	MIC ([4]; R80/421A, 18 h)	MIC [5]	MIC (M. gallisepticum S6; S6, 144 h)	MIC (M. dispar RCTC 10125)	MIC [8]	MIC (M. suipneumoniae OCD 1; [9])	MIC (M. suipneumoniae HR(2); [10])	MIC (M. suipneumoniae JF 435; [11])	MIC [2, 12]	MIC (Strep. faecalis 1; [13])	other results
C/C(=C\C(=O)OCc1ccccc1[N+](=O)[O-])CC1OCC(CC2OC2C(C)C(C)O)C(O)C1O (stereo not drawn) [C, O--nitrobenzyl monate A, reference compound]	0.25 µg/mL (≈ 0.521 µM)	0.25 µg/mL (≈ 0.521 µM)	0.25 µg/mL (≈ 0.521 µM)	0.25 µg/mL (≈ 0.521 µM)	0.25 µg/mL (≈ 0.521 µM)	0.25 µg/mL (≈ 0.521 µM)	0.5 µg/mL (≈ 1.04 µM)	2.5 µg/mL (≈ 5.21 µM)	2.5 µg/mL (≈ 5.21 µM)	5 µg/mL (≈ 10.4 µM)	0.5 µg/mL (≈ 1.04 µM)	2.5 µg/mL (≈ 5.21 µM)	5 µg/mL (≈ 10.4 µM)	0.1 µg/mL (≈ 0.209 µM)	0.25 µg/mL (≈ 0.521 µM)	–	–	–	–	–	MIC (M. suipneumoniae OCD 1): 0.5 µg/mL (≈ 1.04 µM); MIC (M. suipneumoniae HR(2)): 0.5 µg/mL (≈ 1.04 µM); MIC (M. suipneumoniae JF 435): 0.5 µg/mL (≈ 1.04 µM); MIC ([2]; NCTC10662, 18 h): > 100 µg/mL; MIC (Strep. faecalis 1; Enterococcus faecalis, 1, 18 h): > 100 µg/mL; MIC (P. mirabilis 889; Proteus mirabilis, 889, 18 h): > 100 µg/mL; MIC (Sarcina lutea 8340; Micrococcus luteus, 8340, 18 h): > 100 µg/mL; MIC (E. Coli NCTC 10418; NCTC10418, 18 h): > 100 µg/mL; MIC (K. aerogenes A; 18 h): > 100 µg/mL; MIC (Bacillus subtilis 6633; Bacillus subtilis, 6633, 18 h): 2.5 µg/mL (≈ 5.21 µM); MIC ([3]; Corynebacterium xerosis, 9755, 18 h): > 100 µg/mL; MIC ([6]; Haemophilus influenzae, Q1, 18 h): 0.5 µg/mL (≈ 1.04 µM); MIC ([7]; J2206/183B): 0.5 µg/mL (≈ 1.04 µM)
C/C(=C\C(=O)OCc1ccc([N+](=O)[O-])cc1)CC1OCC(CC2OC2C(C)C(C)O)C(O)C1O (stereo not drawn) [Example 1, p-nitrobenzyl monate A]	0.05 µg/mL (≈ 0.104 µM)	0.05 µg/mL (≈ 0.104 µM)	0.05 µg/mL (≈ 0.104 µM)	0.05 µg/mL (≈ 0.104 µM)	0.05 µg/mL (≈ 0.104 µM)	0.05 µg/mL (≈ 0.104 µM)	0.05 µg/mL (≈ 0.104 µM)	0.5 µg/mL (≈ 1.04 µM)	0.5 µg/mL (≈ 1.04 µM)	0.5 µg/mL (≈ 1.04 µM)	0.25 µg/mL (≈ 0.521 µM)	0.5 µg/mL (≈ 1.04 µM)	0.25 µg/mL (≈ 0.521 µM)	0.025 µg/mL (≈ 0.0521 µM)	< 0.01 µg/mL	0.1 µg/mL (≈ 0.209 µM)	0.1 µg/mL (≈ 0.209 µM)	0.1 µg/mL (≈ 0.209 µM)	> 100 µg/mL	50 µg/mL (≈ 104 µM)	MIC (P. mirabilis 889; [14]): 100 µg/mL (≈ 209 µM); MIC (Sarcina lutea 8340; [15]): > 100 µg/mL; MIC (E. Coli NCTC 10418; [16]): 25 µg/mL (≈ 52.1 µM); MIC (K. aerogenes A; [17]): 100 µg/mL (≈ 209 µM); MIC (Bacillus subtilis 6633; [18]): 0.5 µg/mL (≈ 1.04 µM); MIC [3, 19]: > 100 µg/mL; MIC [6, 20]: 0.1 µg/mL (≈ 0.209 µM); MIC [7, 21]: 0.1 µg/mL (≈ 0.209 µM)
C/C(=C\C(=O)OCc1cccc([N+](=O)[O-])c1)CC1OCC(CC2OC2C(C)C(C)O)C(O)C1O (stereo not drawn) [Example 2, m-nitrobenzyl monate A]	0.025 µg/mL (≈ 0.0521 µM)	–	–	–	–	–	–	10 µg/mL (≈ 20.9 µM)	10 µg/mL (≈ 20.9 µM)	25 µg/mL (≈ 52.1 µM)	–	10 µg/mL (≈ 20.9 µM)	–	–	–	0.025 µg/mL (≈ 0.0521 µM)	0.025 µg/mL (≈ 0.0521 µM)	0.025 µg/mL (≈ 0.0521 µM)	> 100 µg/mL	> 100 µg/mL	MIC (M. hyorhinis ATCC 23234; M. hyorhinis ATCC 23234, in vitro, 6 days 37° C., read-out: MIC): ≤ 0.01 µg/mL; MIC (M. suipneumoniae Str. 11; 144 h, M. suipneumoniae Str. 11, in vitro, 6 days 37° C., read-out: MIC): 0.025 µg/mL (≈ 0.0521 µM); MIC (M. suipneumoniae MS 16; M. suipneumoniae MS 16, in vitro, 6 days 37° C., read-out: MIC): ≤ 0.01 µg/mL; MIC (M. suipneumoniae LABER; M. suipneumoniae LABER, in vitro, 6 days 37° C., read-out: MIC): 0.025 µg/mL (≈ 0.0521 µM); MIC (M. hyorhinis ATCC 25021; M. hyorhinis ATCC 25021, in vitro, 6 days 37° C., read-out: MIC): ≤ 0.01 µg/mL; MIC (M. suipneumoniae NB12; 144 h, M. suipneumoniae NB12, in vitro, 6 days 37° C., read-out: MIC): 0.025 µg/mL (≈ 0.0521 µM); MIC (P. mirabilis 889; [14]): > 100 µg/mL; MIC (Sarcina lutea 8340; [15]): > 100 µg/mL; MIC (E. Coli NCTC 10418; [16]): > 100 µg/mL; MIC (K. aerogenes A; [17]): > 100 µg/mL; MIC (Bacillus subtilis 6633; [18]): 5 µg/mL (≈ 10.4 µM); MIC [3, 19]: > 100 µg/mL; MIC ([4]; Strep. pyogenes R80/421-A, nutrient agar 5% chocolated horse blood, 18 hours 37° C., read-out: MIC): 2.5 µg/mL (≈ 5.21 µM); MIC [6, 20]: 2.5 µg/mL (≈ 5.21 µM); MIC (M. gallisepticum S6; 144 h, M. gallisepticum S6, in vitro, 6 days 37° C., read-out: MIC): 2.5 µg/mL (≈ 5.21 µM); MIC (M. dispar RCTC 10125; M. dispar RCTC 10125, in vitro, 6 days 37° C., read-out: MIC): 0.01 µg/mL (≈ 0.0209 µM); MIC [7, 21]: 0.025 µg/mL (≈ 0.0521 µM); MIC ([8]; M. hyosynoviae ATOC 25591, in vitro, 6 days 37° C., read-out: MIC): 0.025 µg/mL (≈ 0.0521 µM)
